Drawing on US8088761B2, “Enzyme inhibitors” (Cancer Research Technology Limited, priority 2005, dated 2012), this text covers IC50 for twelve molecules.

Each structure is given as a SMILES string.

One test concerns the target T1, Aurora-A (Homo sapiens, UniProt O14965).
T1 sequence (O14965 1-403): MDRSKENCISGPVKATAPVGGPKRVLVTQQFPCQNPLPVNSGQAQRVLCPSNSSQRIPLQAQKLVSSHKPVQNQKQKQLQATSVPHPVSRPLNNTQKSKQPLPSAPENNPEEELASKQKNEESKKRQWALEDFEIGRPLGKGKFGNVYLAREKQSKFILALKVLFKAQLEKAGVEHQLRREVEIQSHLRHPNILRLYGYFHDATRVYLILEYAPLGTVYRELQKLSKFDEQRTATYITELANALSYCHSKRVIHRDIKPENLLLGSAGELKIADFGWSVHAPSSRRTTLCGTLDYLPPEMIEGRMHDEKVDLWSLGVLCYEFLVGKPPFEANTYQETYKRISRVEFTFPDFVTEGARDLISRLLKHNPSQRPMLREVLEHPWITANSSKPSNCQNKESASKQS
Nature of the test: Flashplate Aurora A enzyme inhibition assay. The test is classed as biochemical. Conditions: Flashplate assay; IC50 range; read-out: Aurora-A inhibition. The protocol:
Flashplate® Assay for Identification and Evaluation of Aurora-A Inhibitors
On this assay 384-well Basic Flashplate® (SMP400E, PerkinElmer) as solid assay platform was used. The plates were coated overnight at 4° C. with […] at 100 μg/ml in PBS buffer and used after being washed twice with PBS. 5 μl of compound in 2% DMSO was added to each well followed by 15 μl master mix of kinase buffer (50 mM Tris pH 7.5, 10 mM NaCl, 2.5 mM MgCl2, 1 mM […], 20 μM ATP, and 0.025 μCi/μl ^33P-ATP). Finally, 250 ng per well of Aurora-A enzyme was added. The plate was shaken for approximately 2 min on a flat-bed plate shaker (Wellmix, Denley, UK) and incubated for 2 hours at room temperature. The reaction was stopped by washing the plate twice on a 16-pin wash (ELX50 BioTek Instruments Ltd., Northstar, Bedford, UK) with 10 mM sodium pyrophosphate. The plate was then read on a TopCount-NX™ (PerkinElmer Life Sciences UK Ltd., Hounslow, UK).

The subject of the next test is HCT116 cells. In words: Cell viability assay (MTT) in HCT116 cell line. The test is classed as cell-based. Conditions: Homo sapiens, HCT-116, 72 hrs, IC50 range, read-out: HCT116 cell growth inhibition. The procedure: Cell Viability Assay: Determination of IC50 of Aurora Inhibitors in HCT116 Cell Line Using MTT Assay. The effects of compounds of the Examples on cellular proliferation were determined using the MTT assay according to manufacturer's instructions (Sigma). Briefly, the human colon tumour cells HCT116, were seeded in triplicate into 96-well plates at 2500 cells/well 24 hours before treatment with a range of concentrations of Aurora inhibitors (0-50 μM). After 72 hrs, 15 μl/well of 0.5% 3-(4,5-dimethylthiazol-2-yl)-2,5-diphenyltetrazolium bromide (MTT) was added to the cells for 4 hrs at 37° C., the dye-stained viable cells were extracted by adding 150 μl/well of dimethyl sulphoxide (DMSO). […] The IC50 was calculated using the Prism software.

`COc1ccc(-c2nc3c(N4CCN(Cc5ccc(Cl)cc5)CC4)c(Cl)cnc3[nH]2)cc1` [Example 37, 6-Chloro-7-(4-(4-chlorobenzyl)piperazin-1-yl)-2-(4-methoxyphenyl)-3H-imidazo[4,5-b]pyridine]: the IC50 at Aurora-A is under 500 nM; in the test on HCT116 cells, 2000 to 50000 nM.
Taken in the same sequence, the figures for `CN(C)c1ccc(-c2nc3c(N4CCN(C(=O)COc5ccccc5)CC4)c(Br)cnc3[nH]2)cc1` [Example 38, 1-(4-(6-Bromo-2-(4-(dimethylamino)phenyl)-3H-imidazo[4,5-b]pyridin-7-yl)piperazin-1-yl)-2-phenoxyethanone] were under 500 nM and 500 to 2000 nM.
As to `CN(C)c1ccc(-c2nc3c(N4CCN(C(=O)Nc5nccs5)CC4)c(Br)cnc3[nH]2)cc1` [Example 42, 4-(6-Bromo-2-(4-(dimethylamino)phenyl)-3H-imidazo[4,5-b]pyridin-7-yl)-N-(thiazol-2-yl)piperazine-1-carboxamide], the figures for the IC50 at Aurora-A and with HCT116 cells were under 500 nM and 2000 to 50000 nM, respectively.
As for `O=C(CN1CCN(c2c(Br)cnc3[nH]c(-c4cccnc4)nc23)CC1)Nc1nccs1` [Example 44, 2-(4-(6-Bromo-2-(pyridin-3-yl)-3H-imidazo[4,5-b]pyridin-7-yl)piperazin-1-yl)-N-(thiazol-2-yl)acetamide], the IC50 is under 500 nM on Aurora-A and 500 to 2000 nM in the test on HCT116 cells.
Regarding `NC(=O)C1CC1c1nc2c(N3CCN(CC(=O)Nc4nccs4)CC3)c(Br)cnc2[nH]1` (stereo not drawn) [Example 46, 2-(6-Bromo-7-(4-(2-oxo-2-(thiazol-2-ylamino)ethyl)piperazin-1-yl)-3H-imidazo[4,5-b]pyridin-2-yl)cyclopropanecarboxamide], the figures for the IC50 on Aurora-A and in the test with HCT116 cells were 500 to 2000 nM and 2000 to 50000 nM, respectively.
Consider `CN(C)c1ccc(-c2nc3c(N4CCN(S(C)(=O)=O)CC4)c(Br)cnc3[nH]2)cc1` [Example 49, 4-(6-Bromo-7-(4-(methylsulfonyl)piperazin-1-yl)-3H-imidazo[4,5-b]pyridin-2-yl)-N,N-dimethylaniline], for which the results for the IC50 on Aurora-A and in the test on HCT116 cells were under 500 nM and 500 to 2000 nM, respectively.
The corresponding values for `CC(c1ccccn1)N1CCN(c2c(Br)cnc3[nH]c(-c4ccc(N(C)C)cc4)nc23)CC1` (stereo not drawn) [Example 50, 4-(6-Bromo-7-(4-(1-(pyridin-2-yl)ethyl)piperazin-1-yl)-3H-imidazo[4,5-b]pyridin-2-yl)-N,N-dimethylaniline] are under 500 nM and 500 to 2000 nM.
Turning to `CC(c1cccnc1)N1CCN(c2c(Br)cnc3[nH]c(-c4ccc(N(C)C)cc4)nc23)CC1` (stereo not drawn) [Example 52, 4-(6-Bromo-7-(4-(1-(pyridin-3-yl)ethyl)piperazin-1-yl)-3H-imidazo[4,5-b]pyridin-2-yl)-N,N-dimethylaniline], the IC50 is under 500 nM at Aurora-A and 500 to 2000 nM in the test on HCT116 cells.
With `CC(c1ccncc1)N1CCN(c2c(Br)cnc3[nH]c(-c4ccc(N(C)C)cc4)nc23)CC1` (stereo not drawn) [Example 53, 4-(6-Bromo-7-(4-(1-(pyridin-4-yl)ethyl)piperazin-1-yl)-3H-imidazo[4,5-b]pyridin-2-yl)-N,N-dimethylaniline], the results for the IC50 on Aurora-A and in the test with HCT116 cells were under 500 nM and 500 to 2000 nM, respectively.
Regarding `COc1ccc(-c2nc3c(N4CCN(C(C)c5ccncc5)CC4)c(Br)cnc3[nH]2)cc1` (stereo not drawn) [Example 54, 6-Bromo-2-(4-methoxyphenyl)-7-(4-(1-(pyridin-4-yl)ethyl)piperazin-1-yl)-3H-imidazo[4,5-b]pyridine], the IC50 at Aurora-A and with HCT116 cells was under 500 nM throughout.
As to `Cn1cc(-c2nc3c(N4CCN(Cc5cccnc5)CC4)c(Br)cnc3[nH]2)cn1` [Example 56, 6-Bromo-2-(1-methyl-1H-pyrazol-4-yl)-7-(4-(pyridin-3-ylmethyl)piperazin-1-yl)-3H-imidazo[4,5-b]pyridine], the IC50 was under 500 nM on Aurora-A and 2000 to 50000 nM in the test on HCT116 cells.
`Cc1nn(C)c(C)c1-c1nc2c(N3CCN(Cc4cccnc4)CC3)c(Br)cnc2[nH]1` [Example 57, 6-Bromo-7-(4-(pyridin-3-ylmethyl)piperazin-1-yl)-2-(1,3,5-trimethyl-1H-pyrazol-4-yl)-3H-imidazo[4,5-b]pyridine]: the IC50 at Aurora-A was under 500 nM; in the test with HCT116 cells, 2000 to 50000 nM.
